Reference: patent publication US4818770A, “Prevention of a plant disease by specific inhibition of fungal polyamine biosynthesis” (priority 1986, dated 1989)
Where “and” joins values, the source holds several entries; their conditions need not be identical. Equal values may be shown once. Read-outs that look alike come from different tables or passages of the source.

How the values were obtained:
[1] = test system: Uromyces phaseoli; experiment: Bean rust lesions on unifoliolate leaves of Pinto bean sprayed before or after inoculation; assay type: in vivo
[2] = test system: Colletotrichum lagenarium; experiment: Infection of National Pickling cucumber plants by cucumber anthracnose
[3] = test system: bean rust uredospores; experiment: Germination and differentiation of bean rust uredospores in agar; assay type: cell-based, Uromyces phaseoli; details: for inhibition at 100 µM / inhibition at 500 µM / inhibition at 1000 µM / inhibition at 5000 µM: Uromyces phaseoli
[4] = test system: Puccinia sorghi; experiment: Infection by corn rust; assay type: in vivo
[5] = test system: Podosphaera leucotricha; experiment: Infection of apple by powdery mildew; assay type: in vivo
[6] = test system: P. recondita f. sp. tritici; assay type: in vivo, Puccinia recondita f. sp. tritici
[7] = test system: bean plants (Phaseolus vulgaris cv Pinto); experiment: Effect of sprays on growth and appearance of bean plants; assay type: in vivo; details: sprays 0.01, 0.1 and 1.0 mM
Protocol: Unifoliolate leaves of 10-day-old bean seedlings were sprayed (400 ul per leaf) with DFMO or alpha-difluoromethylarginine (DFMA) at concentrations of 0.01-5 mM, before or after inoculation with uredospores of the bean rust, Uromyces phaseoli, Race 0. The inhibitor solutions were prepared in 0.01% Tween 20, with the pH adjusted to 7.0. Control plants without inhibitor were sprayed similarly and were allowed to dry before inoculation with the pathogen. After inoculation with rust uredospores (25 mg/100 ml of 0.01% Tween 20) all plants were placed in dew chambers (100% relative humidity) for 16 hours at 19° C. in total darkness. After exposures to inhibitors and uredospores, all plants were returned to the greenhouse and arranged randomly. Disease severity was evaluated 7 days after inoculation by counting foliar lesions. In control plants and those treated with low concentrations of DFMO, uredospores were collected randomly from each treatment to determine percent germination and pathogenicity. For determination of germination, spores were dusted onto Petri plates containing 10 mM 2-(N-morpholino)ethanesulfonic acid (Mes) at pH 7.0, 3 mM CaCl2, 2 mM MgSO4, and 1% purified agar, and incubated for 3 hr at 19° C. in the light.

[8] = test system: Erysiphe polygoni; experiment: Infection by bean powdery mildew; assay type: in vivo
[9] = test system: PA titers of bean leaves; experiment: Polyamine titers in leaves of sprayed bean plants; assay type: in vivo, Phaseolus vulgaris; details: sprays 0.01, 0.1 and 1.0 mM; 1, 3 and 8 days later
Protocol: PA analysis was performed on leaf samples collected from inhibitor-sprayed bean plants. Leaf samples were ground in prechilled mortars with 10% (w/v) HClO4 at a ratio of 200 mg fresh weight leaf per ml HClO4. Homogenates were centrifuged at 26,00 g for 20 minutes at 4° C. The clear supernatant fractions were used for dansylation according to a procedure previously described. Briefly, 0.4 ml of freshly prepared dansyl (Diaminonaphthylsulfonyl)-C1 (Sigma), 5 mg/ml in acetone, and 0.2 ml of saturated Na2 CO3 were added to 0.2 ml of the supernatant fraction. The dansylated PA were extracted with 0.25 ml benzene and the clear benzene layer was used for PA determinations by TLC on LK6D high resolution silica gel plates (Whatman). After development in chloroform:triethylamine (25:2 v/v) for about 1 hour and location by fluorescence under a UV lamp, the dansylpolyamine bands were scraped off, eluted in 4 ml of ethyl acetate and quantified with an Aminco-Bowman fluorimeter.
The effect of DFMO and DFMA sprays (0.01, 0.1, and 1.0 mM) on PA titers was also examined. Unifoliolate leaves were sprayed in the usual way and examined 1 and 3 days later, while the first trifolioloate leaves, unexpanded ata the time of spray and themselves unsprayed, were examined 8 days later.

[10] = test system: P. graminis f. sp. tritici; assay type: in vivo, Puccinia graminis f. sp. tritici
[11] = test system: Erysiphe graminis; experiment: Wheat powdery mildew infection, colonies per plant; details: concentrations up to 5 mM
Protocol: With wheat powdery mildew (E. graminis) 10-day-old seedlings were sprayed with solutions of DFMA or DFMO from 0.01 to 5.0 mM before and after inoculation of the plants with conidia. Inoculation occurred naturally in the greenhouse by distributing infected plants among the experimental plants for 24 hours. Infection was evaluated 10 days after inoculation by counting mildew colonies.

[12] = postinoculation exposure, inhibitor 1.0 mM
[13] = postinoculation exposure, inhibitor 5.0 mM
[14] = preinoculation exposure, inhibitor 1.0 mM
[15] = preinoculation exposure, inhibitor 5.0 mM
[16] = read-out: Differentiation % Inhibiton
[17] = read-out: Germination % Inhibition

For N=C(N)NCCC[C@](N)(C(=O)O)C(F)F [DFMA, alpha-difluoromethylarginine], the “reduction of bean rust infection” value ([1]; even at 5.0 mM) was “ineffective”, the “germination or pathogenicity of uredospores collected from treated plants” value ([1]; plants treated with low concentrations) was “no decrease in germination or pathogenicity” and the “Lesions per cm^2” value [1, 12] was 56 ± 3 per cm^2. For the same molecule, the Lesions per leaf [1, 12] was 2829 ± 242 per leaf, the “Lesions per cm^2” value [1, 13] was 50 ± 2 per cm^2 and the Lesions per leaf [1, 13] was 2195 ± 169 per leaf. The “Lesions per cm^2” value [1, 14] was 51 ± 4 per cm^2, the Lesions per leaf [1, 14] was 3101 ± 217 per leaf and the “Lesions per cm^2” value [1, 15] was 46 ± 4 per cm^2. For the same molecule, the Lesions per leaf [1, 15] was 2928 ± 317 per leaf, the Lesions per plant ([2]; 1.0 mM) was 73 per plant and the Percent control ([2]; 1.0 mM) was 10%. For the same molecule, the Lesions per plant ([2]; 5.0 mM) was 71 per plant, the Percent control ([2]; 5.0 mM) was 12% and the Lesions per plant ([2]; 10.0 mM) was 73 per plant. The Percent control ([2]; 10.0 mM) was 10%, the Differentiation % ([3]; 0.1 mM) was 46% and the Germination % ([3]; 0.1 mM) was 36%. For the same molecule, the Differentiation % ([3]; 0.5 mM) was 30%, the Germination % ([3]; 0.5 mM) was 36% and the Differentiation % ([3]; 1.0 mM) was 23%. For the same molecule, the Germination % ([3]; 1.0 mM) was 31%, the Differentiation % ([3]; 5.0 mM) was 18% and the Germination % ([3]; 5.0 mM) was 26%. It also gave an inhibition at 100 µM [3, 16] of 22%, an inhibition at 500 µM [3, 16] of 49% and an inhibition at 1000 µM [3, 16] of 61%. It also gave an inhibition at 5000 µM [3, 16] of 69%, an inhibition at 100 µM [3, 17] of 14% and an inhibition at 500 µM [3, 17] of 14%. For the same molecule, the inhibition at 1000 µM [3, 17] was 26%, the inhibition at 5000 µM [3, 17] was 38% and the “Percent control” value ([4]; 0.01 mM) was 13.0%. For the same molecule, the “Percent control” value ([4]; 0.025 mM) was 7.2%, the “Percent control” value ([4]; 0.065 mM) was 0.0% and the “Percent control” value ([4]; 0.10 mM) was 0.0%. For the same molecule, the “Percent control” value ([4]; 0.13 mM) was 9.3%, the “Percent control” value ([4]; 0.16 mM) was 27.1% and the “Percent control” value ([4]; 0.20 mM) was 14.0%. The “control of corn rust” value ([4]; up to 0.20 mM) was “essentially ineffective”, the “Percent control” value ([5]; 1 mM) was 0.8% and the “Percent control” value ([5]; 5 mM) was 28.8%. For the same molecule, the “Percent control” value ([5]; 10 mM) was 0.0%, the “control of apple powdery mildew” value ([5]; 1-10 mM applications) was “essentially ineffective” and the Uredia/plant ([6]; 0.01 mM) was 74 Uredia/plant and 49 Uredia/plant. For the same molecule, the Uredia/plant ([6]; 0.025 mM) was 62 Uredia/plant and 40 Uredia/plant, the “% control” value ([6]; 0.065 mM) was 32% and 54% and the Uredia/plant ([6]; 0.065 mM) was 54 Uredia/plant and 37 Uredia/plant. For the same molecule, the “% control” value ([6]; 0.10 mM) was 37% and 51%, the Uredia/plant ([6]; 0.10 mM) was 50 Uredia/plant and 39 Uredia/plant and the “% control” value ([6]; 0.13 mM) was 34% and 47%. For the same molecule, the Uredia/plant ([6]; 0.13 mM) was 53 Uredia/plant and 42 Uredia/plant, the “% control” value ([6]; 0.16 mM) was 39% and 49% and the Uredia/plant ([6]; 0.16 mM) was 49 Uredia/plant and 41 Uredia/plant. The “% control” value ([6]; 0.20 mM) was 46% and 47%, the Uredia/plant ([6]; 0.20 mM) was 43 Uredia/plant and 42 Uredia/plant and the “% control” value ([6]; 1.00 mM) was 57% and 77%. The Uredia/plant ([6]; 1.00 mM) was 34 Uredia/plant and 18 Uredia/plant, the “growth of the bean plants” value [7] was “no effect” and the Percent control ([8]; 1 mM) was 7%. The Percent control ([8]; 5 mM) was 35%, the Percent control ([8]; 10 mM) was 35% and the “PA levels in treated leaves” value [9] was “no significant reductions”. The “control of wheat stem rust” value ([10]; 0.01 to 1.0 mM) was “relatively ineffective”, the “% control” value ([10]; post-inoculation, 0.01 mM) was 27% and the Uredia/plant ([10]; post-inoculation, 0.01 mM) was 154 Uredia/plant. The “% control” value ([10]; post-inoculation, 0.025 mM) was 36%, the Uredia/plant ([10]; post-inoculation, 0.025 mM) was 134 Uredia/plant and the “% control” value ([10]; post-inoculation, 0.065 mM) was 29%. For the same molecule, the Uredia/plant ([10]; post-inoculation, 0.065 mM) was 150 Uredia/plant, the “% control” value ([10]; post-inoculation, 0.10 mM) was 28% and the Uredia/plant ([10]; post-inoculation, 0.10 mM) was 152 Uredia/plant. For the same molecule, the “% control” value ([10]; post-inoculation, 0.13 mM) was 42%, the Uredia/plant ([10]; post-inoculation, 0.13 mM) was 122 Uredia/plant and the “% control” value ([10]; post-inoculation, 0.16 mM) was 42%. For the same molecule, the Uredia/plant ([10]; post-inoculation, 0.16 mM) was 122 Uredia/plant, the “% control” value ([10]; post-inoculation, 0.20 mM) was 41% and the Uredia/plant ([10]; post-inoculation, 0.20 mM) was 124 Uredia/plant. The “% control” value ([10]; post-inoculation, 1.00 mM) was 40%, the Uredia/plant ([10]; post-inoculation, 1.00 mM) was 126 Uredia/plant and the “% control” value ([10]; pre-inoculation, 0.01 mM) was 9%. For the same molecule, the Uredia/plant ([10]; pre-inoculation, 0.01 mM) was 192 Uredia/plant, the “% control” value ([10]; pre-inoculation, 0.025 mM) was 20% and the Uredia/plant ([10]; pre-inoculation, 0.025 mM) was 167 Uredia/plant. For the same molecule, the “% control” value ([10]; pre-inoculation, 0.065 mM) was 20%, the Uredia/plant ([10]; pre-inoculation, 0.065 mM) was 168 Uredia/plant and the “% control” value ([10]; pre-inoculation, 0.10 mM) was 21%. The Uredia/plant ([10]; pre-inoculation, 0.10 mM) was 165 Uredia/plant, the “% control” value ([10]; pre-inoculation, 0.13 mM) was 8% and the Uredia/plant ([10]; pre-inoculation, 0.13 mM) was 193 Uredia/plant. The “% control” value ([10]; pre-inoculation, 0.16 mM) was 11%, the Uredia/plant ([10]; pre-inoculation, 0.16 mM) was 186 Uredia/plant and the “% control” value ([10]; pre-inoculation, 0.20 mM) was 18%. For the same molecule, the Uredia/plant ([10]; pre-inoculation, 0.20 mM) was 172 Uredia/plant, the “% control” value ([10]; pre-inoculation, 1.00 mM) was 30% and the Uredia/plant ([10]; pre-inoculation, 1.00 mM) was 148 Uredia/plant. For the same molecule, the “control of wheat powdery mildew infection” value [11] was “ineffective”.
